# Assay results taken from patent publication US6362360B1, “3-aryl-2-hydroxypropionic acid derivative III” (AstraZeneca AB, priority 1998, dated 2002).
# Tested on: obese diabetic mice of the Umeå ob/ob strain
# Assay: Biological activity in obese diabetic ob/ob mice (plasma glucose, insulin, triglycerides; weight gain)
# Assay type: in vivo
# Procedure: The biological activity of the compound of the invention was tested in obese diabetic mice of the Umeå ob/ob strain. Groups of mice received the test compound by gavage once daily for 7 days. On the last day of the experiment the animals were anesthetized 2 h after dose in a non-fed state and blood was collected from an incised artery. Plasma was analyzed for concentration of glucose, insulin and triglycerides. A group of untreated obese diabetic mice of the same age served as control. The weights of the mice were measured before and after the experiment and the obtained weight gains were compared to the weight gains of the control animals. The individual values for glucose, insulin and triglyceride levels of the mice from the test group were expressed as the percentage rage of the corresponding values from the control group. The desired “therapeutic effect” was calculated as the average percent reduction of the three variables glucose, insulin and triglycerides below the levels in the control animals. The therapeutic effect of the tested compounds according to the invention was compared to the same effect in the prior art compound troglitazone, administrered by gavage in the oral dose of 100 μmol/kg for 7 days.
smiles,measurement,setting,value
"CCO[C@@H](Cc1ccc(OCCc2ccc(NC(=O)OC(C)(C)C)cc2)cc1)C(=O)O [compound of the invention, 3-{4-[2-(4-tert-Butoxycarbonylaminophenyl)ethoxy]phenyl}-(S)-2-ethoxy propanoic acid]","therapeutic effect (average percent reduction of glucose, insulin and triglycerides below the levels in the control animals)","gavage once daily for 7 days, compared to troglitazone in the same oral dose (100 μmol/kg for 7 days)",superior effects
same,weight gain,"weights measured before and after the 7-day experiment, compared to control animals",without undesirable weight gain
